Reference: patent US20120020915A1, “Compounds and Methods for Treating Cancer and Diseases of the Central Nervous System” (QUEENS UNIVERSITY AT KINGSTON, priority 2007, published 2012)

Legend:
[1] = tested on: SKMEL-V human melanoma cells; assay: Human melanoma model SKMEL-V+ in SCID mice (pilot study), tumor growth; assay type: in vivo, Mouse (Mus musculus); SCID
From the text: Human melanoma cells (“SKMEL-V cells”) were derived from SKMEL-24 cells (ATCC) by over expression of mouse VEGF.
Only those cells with >95% viability were used for in-viva studies.
Once tumors reached a size of approximately 0.7 cm^3, they were removed under sterile condition, sliced into small pieces under a stereo-microscope. Each tissue piece was then re-inoculated subcutaneously. Only pieces of approximately the same size and with no signs of necrosis were used.
All data in this study are presented as mean±SE. Statistical analyses were performed by one-way ANOVA followed by Newman-Keuls post-hoc comparisons to assess significant main effects within groups. Statistical significance was set at p<0.05.

[2] = tested on: B16-BL6 cells (mouse melanoma); assay: Metastatic B16-BL6 melanoma model, lung surface metastases; assay type: in vivo; settings: vehicle control: 101
Procedure: B16-BL6 cells (mouse melanoma). B16-BL6 metastatic variant was derived from B16-F10. This cell variant was obtained from Dr. Linda D. Williams, Dept. of Cancer Biology, MD Anderson Cancer Center, Texas, USA. […] Cells were maintained at 37° C. in a humidified atmosphere (5% CO2, 95% air).
Control groups received the vehicle alone.

[3] = tested on: human metastatic prostate cancer PC-3M cells; assay: Orthotopic PC-3M prostate cancer model in SCID mice, primary tumor and metastases; assay type: in vivo, male SCID; settings: 32-mouse study
From the text: PC-3 & PC-3M (human prostate carcinoma). The PC-3 human prostate cancer cell line was originally obtained from the American Type Culture Collection (Rockville, Md.). The PC-3M cell line was kindly provided by Dr. Issac (MD Anderson Cancer Center). This cell variant was derived from a liver metastasis produced by the parental PC-3 cells growing in the spleen of a nude mouse [Pettaway C A, Pathak S, Greene G. et al. Selection of highly metastatic variants of different human prostate carcinomas utilizing orthotopic implantation in nude mice. Clin Cancer Res 1996; 2:1627-36].
Cell cultures were maintained in 5% CO2/95% air at 37° C. SKMEL-V (human melanoma cells). SKMEL-V cells were derived from SKMEL-24 cells (ATCC) by overexpression of mouse VEGF.
Exponentially growing cells were harvested using a brief exposure to 0.25% trypsins:0.1% EDTA solution (w/v).
Mice were anesthesized with isofluorane given by inhalation and placed in a supine position. Betadine and 75% Ethanol was used to clean the skin of abdomen. A low midline incision was made and the prostate was exposed. Fifty microliters of HBSS containing 1×10^6 cells was injected into a lateral lobe of the prostate. […]
Primary tumors in the prostate were excised, measured, and weighed. […]
The in vivo data was analyzed using the Mann-Whitney U test.

HO-1 (rat spleen) = target: T1, HO-1 (rat spleen) (Rattus norvegicus, UniProt P06762); assay: HO enzymatic activity, rat spleen microsomal fraction (CO formation from methemalbumin); assay type: biochemical; settings: CO formation from methemalbumin, mean ± SD of replicate experiments, read-out: IC50 HO-1 (rat spleen/μM)
T1 construct: Spleen microsomes were used as a source of HO-1; from tissue; host or cells: spleen microsomal fraction of adult male Sprague-Dawley rats
T1 sequence (P06762 1-289): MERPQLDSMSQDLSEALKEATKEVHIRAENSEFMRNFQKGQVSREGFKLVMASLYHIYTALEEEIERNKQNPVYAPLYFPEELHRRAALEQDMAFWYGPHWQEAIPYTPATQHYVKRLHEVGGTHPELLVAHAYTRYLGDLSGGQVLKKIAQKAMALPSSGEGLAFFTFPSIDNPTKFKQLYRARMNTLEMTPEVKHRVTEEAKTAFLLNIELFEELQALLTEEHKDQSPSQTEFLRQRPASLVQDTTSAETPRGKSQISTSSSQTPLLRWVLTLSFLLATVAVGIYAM

HO-2 (rat brain) = target: T2, HO-2 (rat brain) (Rattus norvegicus, UniProt P23711); assay: HO enzymatic activity, rat brain microsomal fraction (CO formation from methemalbumin); assay type: biochemical; settings: CO formation from methemalbumin, mean ± SD of replicate experiments, read-out: IC50 HO-2 (rat brain)/μM)
T2 construct: brain microsomes were used as a source of HO-2; from tissue; host or cells: brain microsomal fraction of adult male Sprague-Dawley rats
T2 sequence (P23711 1-315): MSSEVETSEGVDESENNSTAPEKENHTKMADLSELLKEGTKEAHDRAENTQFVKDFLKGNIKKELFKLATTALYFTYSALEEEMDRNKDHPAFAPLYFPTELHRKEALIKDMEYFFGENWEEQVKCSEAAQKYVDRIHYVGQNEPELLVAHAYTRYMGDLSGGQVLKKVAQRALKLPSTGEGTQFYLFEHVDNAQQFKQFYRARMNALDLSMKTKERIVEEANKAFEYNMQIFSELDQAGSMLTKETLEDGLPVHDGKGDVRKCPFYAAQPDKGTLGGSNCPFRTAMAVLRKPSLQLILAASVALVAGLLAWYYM

Structure (SMILES): Brc1ccc(CCC2(Cn3ccnc3)OCCO2)cc1.Cl [QC-56, 1-((2-(2-(4-Bromophenyl)ethyl)-1,3-dioxolan-2-yl)methyl)-1H-imidazole hydrochloride]
- tumor volume compared with vehicle alone ([1]; 30 mg/kg (P<0.03)): statistically significantly smaller
- tumor volume compared with vehicle alone ([1]; 60 mg/kg (P<0.02)): statistically significantly smaller
- macroscopic nodules in the lungs (average) [2]: 51 nodules
- formation of macroscopic lymph node metastases [3]: complete inhibition

Structure (SMILES): Cl.FC[C@@H]1CO[C@@](CCc2ccc(Cl)cc2)(Cn2ccnc2)O1 [QC-47, (2R,4S)-1-{2-[2-(4-Chlorophenyl)ethyl]-4-fluoromethyl-[1,3]dioxolan-2-ylmethyl}-1H-imidazole hydrochloride]
- IC50 (HO-1 (rat spleen)): 6 ± 3 µM
- IC50 (HO-2 (rat brain)): > 100 µM
